From PubChem BioAssay (NCI)
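96-well plates; 48 h exposure; 5 concentrations. Endpoints by linear interpolation between flanking doses. Not reached: highest tested concentration assigned. GI50 = concentration required for 50% inhibition of growth. Definition used: TGI = concentration required for complete inhibition of growth.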

What was measured:
Experiment in all cases: inhibition of tumour cell growth, NCI panel, 48 h
786-0 renal = test system: 786-0 renal
A498 renal = test system: A498 renal
A549 NSCLC = test system: A549 NSCLC
ACHN renal = test system: ACHN renal
BT-549 breast = test system: BT-549 breast
CAKI-1 renal = test system: CAKI-1 renal
CCRF-CEM leukemia = test system: CCRF-CEM leukemia
COLO 205 colon = test system: COLO 205 colon
DU-145 prostate = test system: DU-145 prostate
EKVX NSCLC = test system: EKVX NSCLC
HCC-2998 colon = test system: HCC-2998 colon
HCT-116 colon = test system: HCT-116 colon
HCT-15 colon = test system: HCT-15 colon
HL-60(TB) leukemia = test system: HL-60(TB) leukemia
HOP-62 NSCLC = test system: HOP-62 NSCLC
HOP-92 NSCLC = test system: HOP-92 NSCLC
HS 578T breast = test system: HS 578T breast
HT29 colon = test system: HT29 colon
IGROV1 ovarian = test system: IGROV1 ovarian
K-562 leukemia = test system: K-562 leukemia
KM12 colon = test system: KM12 colon
LOX IMVI melanoma = test system: LOX IMVI melanoma
M14 melanoma = test system: M14 melanoma
MALME-3M melanoma = test system: MALME-3M melanoma
MCF7 breast = test system: MCF7 breast
MDA-MB-231 breast = test system: MDA-MB-231 breast
MDA-MB-435 = test system: MDA-MB-435
MOLT-4 leukemia = test system: MOLT-4 leukemia
NCI-H226 lung = test system: NCI-H226 lung
NCI-H23 lung = test system: NCI-H23 lung
NCI-H460 lung = test system: NCI-H460 lung
NCI-H522 lung = test system: NCI-H522 lung
NCI/ADR-RES ovarian = test system: NCI/ADR-RES ovarian
OVCAR-3 ovarian = test system: OVCAR-3 ovarian
OVCAR-4 ovarian = test system: OVCAR-4 ovarian
OVCAR-5 ovarian = test system: OVCAR-5 ovarian
OVCAR-8 ovarian = test system: OVCAR-8 ovarian
PC-3 prostate = test system: PC-3 prostate
RPMI-8226 leukemia = test system: RPMI-8226 leukemia
RXF 393 renal = test system: RXF 393 renal
SF-295 CNS = test system: SF-295 CNS
SF-539 CNS = test system: SF-539 CNS
SK-MEL-2 melanoma = test system: SK-MEL-2 melanoma
SK-MEL-28 melanoma = test system: SK-MEL-28 melanoma
SK-MEL-5 melanoma = test system: SK-MEL-5 melanoma
SK-OV-3 ovarian = test system: SK-OV-3 ovarian
SN12C renal = test system: SN12C renal
SNB-19 CNS = test system: SNB-19 CNS
SNB-75 CNS = test system: SNB-75 CNS
SR leukemia = test system: SR leukemia
SW-620 colon = test system: SW-620 colon
T-47D breast = test system: T-47D breast
TK-10 renal = test system: TK-10 renal
U251 CNS = test system: U251 CNS
UACC-257 melanoma = test system: UACC-257 melanoma
UACC-62 melanoma = test system: UACC-62 melanoma
UO-31 renal = test system: UO-31 renal

Structure (SMILES): CCCCCCCCCCCCNC(=O)[C@H]1CSC(c2cc3ccccc3s2)N1 (some centres undefined)
- GI50 (786-0 renal): 4.6 µM
- TGI (786-0 renal): 9.11 µM
- GI50 (A498 renal): 10.2 µM
- TGI (A498 renal): 26.3 µM
- GI50 (A549 NSCLC): 6.01 µM
- TGI (A549 NSCLC): 11.3 µM
- GI50 (ACHN renal): 4.9 µM
- TGI (ACHN renal): 9.29 µM
- GI50 (BT-549 breast): 1.01 µM
- TGI (BT-549 breast): 4.11 µM
- GI50 (CAKI-1 renal): 2.09 µM
- TGI (CAKI-1 renal): 6.4 µM
- GI50 (CCRF-CEM leukemia): 0.725 µM
- TGI (CCRF-CEM leukemia): 1.68 µM
- GI50 (COLO 205 colon): 6.46 µM
- TGI (COLO 205 colon): 12.3 µM
- GI50 (DU-145 prostate): 1.21 µM
- TGI (DU-145 prostate): 4.19 µM
- GI50 (EKVX NSCLC): 0.951 µM
- TGI (EKVX NSCLC): 2.69 µM
- GI50 (HCC-2998 colon): 4.88 µM
- TGI (HCC-2998 colon): 9.72 µM
- GI50 (HCT-116 colon): 1.06 µM
- TGI (HCT-116 colon): 3.42 µM
- GI50 (HCT-15 colon): 3.69 µM
- TGI (HCT-15 colon): 8.17 µM
- GI50 (HL-60(TB) leukemia): 0.154 µM
- TGI (HL-60(TB) leukemia): 8.69 µM
- GI50 (HOP-62 NSCLC): 0.732 µM
- TGI (HOP-62 NSCLC): 1.55 µM
- GI50 (HOP-92 NSCLC): 5.41 µM
- TGI (HOP-92 NSCLC): 10.5 µM
- GI50 (HS 578T breast): 0.777 µM
- TGI (HS 578T breast): 1.86 µM
- GI50 (HT29 colon): 1.74 µM
- TGI (HT29 colon): 5.87 µM
- GI50 (IGROV1 ovarian): 0.923 µM
- TGI (IGROV1 ovarian): 2.51 µM
- GI50 (K-562 leukemia): 0.717 µM
- TGI (K-562 leukemia): 1.62 µM
- GI50 (KM12 colon): 1.1 µM
- TGI (KM12 colon): 3.55 µM
- GI50 (LOX IMVI melanoma): 0.534 µM
- TGI (LOX IMVI melanoma): 1.05 µM
- GI50 (M14 melanoma): 0.591 µM
- TGI (M14 melanoma): 1.11 µM
- GI50 (MALME-3M melanoma): 5.75 µM
- TGI (MALME-3M melanoma): 10.9 µM
- GI50 (MCF7 breast): 4.02 µM
- TGI (MCF7 breast): 9.15 µM
- GI50 (MDA-MB-231 breast): 0.706 µM
- TGI (MDA-MB-231 breast): 1.46 µM
- GI50 (MDA-MB-435): 0.605 µM
- TGI (MDA-MB-435): 1.19 µM
- GI50 (MOLT-4 leukemia): 0.657 µM
- TGI (MOLT-4 leukemia): 1.37 µM
- GI50 (NCI-H226 lung): 3 µM
- TGI (NCI-H226 lung): 7.88 µM
- GI50 (NCI-H23 lung): 1.92 µM
- TGI (NCI-H23 lung): 7.19 µM
- GI50 (NCI-H460 lung): 1.02 µM
- TGI (NCI-H460 lung): 2.5 µM
- GI50 (NCI-H522 lung): 5.11 µM
- TGI (NCI-H522 lung): 11.1 µM
- GI50 (NCI/ADR-RES ovarian): 1.66 µM
- TGI (NCI/ADR-RES ovarian): 6.83 µM
- GI50 (OVCAR-3 ovarian): 3.79 µM
- TGI (OVCAR-3 ovarian): 9.5 µM
- GI50 (OVCAR-4 ovarian): 0.849 µM
- TGI (OVCAR-4 ovarian): 1.97 µM
- GI50 (OVCAR-5 ovarian): 4.16 µM
- TGI (OVCAR-5 ovarian): 8.53 µM
- GI50 (OVCAR-8 ovarian): 2.23 µM
- TGI (OVCAR-8 ovarian): 8.53 µM
- GI50 (PC-3 prostate): 1.3 µM
- TGI (PC-3 prostate): 4.21 µM
- GI50 (RPMI-8226 leukemia): 6 µM
- TGI (RPMI-8226 leukemia): 15.3 µM
- GI50 (RXF 393 renal): 0.942 µM
- TGI (RXF 393 renal): 2.21 µM
- GI50 (SF-295 CNS): 3.52 µM
- TGI (SF-295 CNS): 8.33 µM
- GI50 (SF-539 CNS): 1.36 µM
- TGI (SF-539 CNS): 4.79 µM
- GI50 (SK-MEL-2 melanoma): 1.96 µM
- TGI (SK-MEL-2 melanoma): 6.49 µM
- GI50 (SK-MEL-28 melanoma): 0.644 µM
- TGI (SK-MEL-28 melanoma): 1.39 µM
- GI50 (SK-MEL-5 melanoma): 4.34 µM
- TGI (SK-MEL-5 melanoma): 8.72 µM
- GI50 (SK-OV-3 ovarian): 4.16 µM
- TGI (SK-OV-3 ovarian): 8.38 µM
- GI50 (SN12C renal): 2.8 µM
- TGI (SN12C renal): 7.24 µM
- GI50 (SNB-19 CNS): 5.47 µM
- TGI (SNB-19 CNS): 11.2 µM
- GI50 (SNB-75 CNS): 0.599 µM
- TGI (SNB-75 CNS): 1.12 µM
- GI50 (SR leukemia): 0.695 µM
- TGI (SR leukemia): 1.85 µM
- GI50 (SW-620 colon): 2.3 µM
- TGI (SW-620 colon): 7.93 µM
- GI50 (T-47D breast): 5.5 µM
- TGI (T-47D breast): 12.3 µM
- GI50 (TK-10 renal): 1.27 µM
- TGI (TK-10 renal): 4.88 µM
- GI50 (U251 CNS): 2.61 µM
- TGI (U251 CNS): 7.19 µM
- GI50 (UACC-257 melanoma): 4.12 µM
- TGI (UACC-257 melanoma): 8.6 µM
- GI50 (UACC-62 melanoma): 1.15 µM
- TGI (UACC-62 melanoma): 4.28 µM
- GI50 (UO-31 renal): 4.16 µM
- TGI (UO-31 renal): 8.37 µM
